Here are results for two substances from patent US20140178327A1, “Antimicrobial Ophthalmic Devices” (CooperVision International Holding Company, LP, priority 2012, published 2014).

What all share (format): cell-based
Test [1] concerns Pseudomonas aeruginosa (PA) ATCC 9027. The experiment in a line: In vitro biofilm assay. Particulars: for Log εPLL (log CFU recovered per εPLL lens): 10^7 CFU/mL, 2 hours adhesion, 24 hours biofilm growth; for Log Reduction: versus control lens. On the procedure: (§1) Lenses at the 0 hour time point and from the 168 hour time point were used to test whether they supported biofilm formation. The lenses were rinsed for 5 seconds in 2.5 mL of sterile PBS then transferred into an individual well of a 24-well plate containing 1.0 mL of bacterial inoculum at approximately 10^7CFU/mL, prepared as described in Example 5. The plates were incubated for 2 hours on a 37° C. with gentle rotary agitation. The remaining inoculum, i.e. not incubated with lenses, was also incubated on the shaker for the duration of each experiment to determine the cfu/mL of the inoculum at t=2 hr and t=24 hr. After 2 hours incubation each lens was washed using the bacterial wash step described in Example 5 then placed on an insert of a 24-well plate for biofilm formation as described below. The inoculum concentration (at t=0 hr and 2 hr) was confirmed by serial dilution, plating onto TSA, incubating overnight at 37° C. and colony counting.
(§2) Custom-made mushroom-shaped stainless steel inserts, depicted in FIG. 1, were placed in each well of a 24-well plate. The cap portion of each insert has a diameter of approximately 14 mm and a curvature to match the posterior surface of a contact lens. The height of each insert is approximately 11 mm. One mL of sterile media/diluent was added to each well. Each preloaded, washed lens (as described above) was placed on the top (cap portion) of an insert, convex side up. The dimensions of the inserts and the volume of the media are such that the periphery of the placed lens is in contact with the media/diluent and the center portion of the lens is at the liquid/air interface. Plates were loosely sealed to prevent evaporation, and incubated for 24 hours at 37° C., with rotary agitation. After incubation, each lens was subjected to the bacterial wash step as described in Example 5. Bacteria were recovered from the washed lenses and log kill calculated as described above in Example 5. Each t-24 hr inoculum concentration was confirmed as described above for t=0 and t=2 hr time points.

Test [2] concerns Serratia marcescens (SM) ATCC 6538. Briefly: In vitro biofilm assay. Particulars: for Log εPLL (log CFU recovered per εPLL lens): 10^7 CFU/mL, 2 hours adhesion, 24 hours biofilm growth; for Log Reduction: versus control lens. On the procedure:
as §1, §2

The test system of test [3] is Pseudomonas aeruginosa (PA) ATCC 9027. The experiment in a line: In vitro bioactivity assay. The following applies: for log kill εPLL: Formulation F lens autoclaved in 500 ppm εPLL in PBS. On the procedure: (§3) Cultures were prepared from growing a single colony of each of the bacterial species shown in Table 3 below in 50 ml. trypticase soy broth (TSB) overnight at 37° C. on a rotary shaker. 1 ml of each culture was centrifuged, and the bacterial pellet resuspended in 1.0 ml of the diluent shown in Table 3, where PBST is 19 mM PBS at pH 7.3 (0.83 wt. % NaCl, 0.03 wt. % sodium phosphate monobasic, and 0.24% sodium phosphate dibasic) with 0.05% Tween. For each bacterial species, a suspension of approximately 10^8CFU/mL was prepared by diluting the bacterial suspension to achieve the optical density indicated in Table 3.
(§4) Each suspension was further diluted to approximately 10^4CFU/mL (low inoculum) or 10^7CFU/mL (high inoculum) using the above diluents to make the bacterial inoculums for testing bioactivity of lenses.
(§5) Each lens was rinsed in 2.5 ml sterile PBS for a few seconds, and transferred into an individual well of a 24-well plate containing 1.0 ml of bacteria inoculum. The plates were incubated at 37° C. with gentle shaking. The original inoculums were incubated for the duration of the experiment to confirm the concentrations at each sample recovery time point. At the time point tested, each lens was removed from its well and transferred to a well of a 12-well plate containing 2.5 mL of sterile PBST. The plate was gently swirled gently for about 30 seconds. This step was repeated once for each lens. Such 2× wash step is referred to herein as the bacterial wash step.
(§6) Each washed lens was placed in a microcentrifuge tube containing 1 ml of Dey-Engley (DE) neutralizing broth and adhered bacteria were removed by a combination of sonication for about 2 minutes and vortexing for about 10 minutes. Serial dilutions were made for each recovered cell suspension using DE neutralizing broth and suitable dilutions were plated onto TSA. Plates were incubated overnight at 37° C. and CFUs were counted.
(§7) The CFU for each plate was multiplied by the dilution factor (DF) as well as the plating dilution factor (PDF). The total CFUs recovered for a given sample were then converted to the log 10. To calculate the log kill of an antimicrobial lens, the log of CFU/lens of the antimicrobial lens is subtracted from that of the control lens. For example, if the mean log 10 value of an antimicrobial lens is 1.05 and the mean log 10 value of an otherwise identical control lens lacking the active antimicrobial agent is 5.52, the log kill is 5.52−1.05=4.47.

The test system of test [4] is Serratia marcescens (SM) ATCC 6538. The experiment in a line: In vitro bioactivity assay. The following applies: for log kill of SM: ionic silicone hydrogel contact lens with about 10 μg PQ-1 and/or about 200 μg εPLL, 24 hour incubation, 10^7 inoculum; for log kill εPLL: Formulation F lens autoclaved in 500 ppm εPLL in PBS. On the procedure: as §3, §4, §5, §6, §7

In test [5] the test system is Staphylococcus aureus (SA) ATCC 13880. Briefly: In vitro bioactivity assay. The following applies: for log kill of SA: ionic silicone hydrogel contact lens with about 10 μg PQ-1 and/or about 200 μg εPLL, 24 hour incubation, 10^7 inoculum; for log kill εPLL: Formulation F lens autoclaved in 500 ppm εPLL in PBS. On the procedure:
as §3, §4, §5, §6, §7

Test [6] has the same test system. Briefly: In vitro biofilm assay. Particulars: for Log εPLL (log CFU recovered per εPLL lens): 10^7 CFU/mL, 2 hours adhesion, 24 hours biofilm growth; for Log Reduction: versus control lens. On the procedure: as §1, §2
The mark [7] stands for this setting: lenses packaged in PBS containing 30 μg/ml PQ-1.
Setting [8] is: Formulation F lenses without εPLL, 72 hours in PBS plus PQ-1, high inoculum (10^7), 24-hour incubation.
Setting [9] is: SM, Formulation F lenses without εPLL, 72 hours in PBS plus PQ-1, high inoculum (10^7), 24-hour incubation.
Setting [10] is: SA, Formulation F lenses without εPLL, 72 hours in PBS plus PQ-1, high inoculum (10^7), 24-hour incubation.

As for polyquarternium-1 [PQ-1], the “antimicrobial activity in biofilm assay” value in test [1] (setting [7]) and in test [2] (setting [7]) was “lack of antimicrobial activity” throughout. In addition, the “log kill 10 μ/ml PQ-1” value in test [3] (24 hr, Formulation F lens without εPLL) was −0.23; in test [4] (SM, 24 hr, Formulation F lens without εPLL), 0.55; in test [5] (SA, 24 hr, Formulation F lens without εPLL), −0.74. Further, the entries for the “log kill at 10 μg/ml PQ-1” value in test [3] (setting [8]), in test [4] (setting [9]) and in test [5] (setting [10]) were −0.23, −0.55 and −0.54, respectively. Besides, the entries for the “log kill at 30 μg/ml PQ-1” value in test [3] (setting [8]), in test [4] (setting [9]) and in test [5] (setting [10]) were 0.16, 0.55 and 1.47, respectively. Besides, the “log kill at 100 μg/ml PQ-1” value in test [3] (setting [8]) came to 3.43; in test [4] (setting [9]) it was 0.31; in test [5] (setting [10]), 3.04. Moreover, in test [4], the “log kill of SM” value was “no significant activity”. Moreover, the “log kill of SA” value in test [5] is “no significant activity”.
For the substance ε-polylysine [εPLL], the “Log εPLL (log CFU recovered per εPLL lens)” value in test [1] (0 hr wash lenses) amounted to 0.9; in test [1] (168 hr wash lenses) it was 0.6; in test [2] (0 hr wash lenses), 1.0; in test [2] (168 hr wash lenses), 3.8; in test [6] (0 hr wash lenses), 0.8; in test [6] (168 hr wash lenses) it was 3.1. For the same substance, the “Log Reduction” value came to 5.0 in test [1] (0 hr wash lenses); 4.9 in test [1] (168 hr wash lenses); 3.5 in test [2] (0 hr wash lenses); 1.7 in test [2] (168 hr wash lenses); 3.7 in test [6] (0 hr wash lenses); 2.4 in test [6] (168 hr wash lenses). Further, the “log kill εPLL” value in test [3] (2 hr) is 2.63; in test [3] (6 hr), 4.04; in test [3] (24 hr), “≧4.04”; in test [4] (SM, 2 hr) it was 0.19; in test [4] (SM, 6 hr) it was 0.74; in test [4] (SM, 24 hr), 1.63. For the same substance, the “log kill εPLL” value in test [5] (SA, 2 hr) is listed as −0.06; in test [5] (SA, 6 hr), 0.37; in test [5] (SA, 24 hr), 1.85. Moreover, the “log kill of SM” value in test [4] is recorded as around 1.5 log. Also, the “log kill of SA” value in test [5] is around 2 log.
